Data: patent US12459953B2, “TREM2 modulators” (Muna Therapeutics ApS, priority 2024, dated 2025)

Biological target: T1, Human TREM2 (Homo sapiens, UniProt Q9NZC2)
T1 construct: expressed in transfected cells
Assay: Human TREM2 activity by cellular phosphorylation of Syk (AlphaLISA SureFire Ultra p-SYK) in HEK293/DAP12+TREM2 stable cell line
Format: cell-based
Conditions: HEK293/DAP12+TREM2 cells; for Emax: maximal response relative to the maximal response of the reference agonist (8-(4-chloro-2-fluorophenyl)-2,3-dimethyl-6-[(2S)-2-(1-methyl-1H-pyrazol-4-yl)morpholin-4-yl]-3H,4H-[1,3]diazino[5,4-d]pyrimidin-4-one); for EC50: phospho-Syk AlphaScreen signal, 30 min incubation, concentration giving 50% of maximal response
Excerpt: Human TREM2, in vitro Measurement of Triggering Receptor Expressed on Myeloid Cells 2 activity using cellular phosphorylation of Spleen Tyrosine Kinase (“Syk”) Assay
HEK-293 cells were co-transfected with separate plasmids encoding TREM2 and DAP12 to generate a stable cell line. After antibiotic selection, functional clone pool analysis and two successive limiting dilutions, the final clone
“HEK293/DAP12+TREM2” underwent a qPCR analysis and a pharmacological validation.
TREM2 signaling through DAP12 was monitored in the HEK293/DAP12+TREM2 stable cell line by measuring the phosphorylation levels of the Syk kinase using the commercially available AlphaLISA SureFire Ultra p-SYK (Tyr525/526) Assay Kit (PerkinElmer #ALSU-PSYK), based on the Perkin Elmer AlphaScreen/AlphaLISA technology.
Compounds are transferred to the test plate and tested in full dose response, 8 concentrations in quadruplicate data points. Compound serial dilutions were performed at Cybi-Felix instrument in 100% DMSO and the dose response curves were assembled in automated fashion in 384MPT at Hamilton STARIet instrument. All the stock solutions were prepared at 20 mM in 100% DMSO. For compounds testing, the starting concentration was 100 μM, dilution steps 1:6. A different concentration's range was adapted for compound's activity based on the preliminary results. Finally, a 384MPT reformatted for all compounds at 8 concentrations, quadruplicates, was used as “mother to child” process with a CyBi®-Well dispenser in which 1 μL of each compound was moved into a destination plate pre-filled with 65.6 μL of EMEM cell culture medium (BIOWHITTAKER_cat.BE12-125F), thus obtaining 3× concentrated compounds working solution. In columns 1-2 and 23-24 the control wells were added. In particular, dose response curves of a reference control agonist were included in column 1 and 24 as reference control agonist (Reference control agonists used include Human TREM2 polyclonal Antibody AF1828: R&D Systems; Human TREM2 monoclonal Antibody MAB1828: R&D Systems). The dose response curves were tested starting at 30 μM, dilution step 1:6. Both “source” compound plate and “destination” compound plate were barcoded and a relationship between the two plates was thus generated.
HEK293/DAP12+TREM2 cells were cultured in EMEM medium supplemented with IX Penicillin/Streptomycin (BIOWHITTAKER_cat.DE17-602E), ULTRAGLUTAMINE I 200 mM, 10% Fetal Bovine Serum plus antibiotics referred to as “HEK293 Culture Medium”. The day before the experiment, cells were detached by gentle wash with DPBS, followed by 5 min incubation at 37° C. with Trypsin solution. Cells were then diluted in HEK293 Culture Medium without antibiotics, counted and seeded into 384-well poly-D-Lysine coated microplates black/clear bottom (GREINER 781946) at a density of 10,000 cells/well in 25 μL/well by the use of a MATRIX WellMate dispenser. Plates were placed into a humidified cell culture incubator at 37° C. with 5% CO2 until the experimental day. 20-24 hours after seeding mature medium was removed and replaced with 10 μL/well of EMEM cell medium supplemented with 0.1% Pluronic F-68 non-ionic surfactant (Thermofisher, 24040032), referred to as “Assay Buffer”, using the CyBi®-Well instrument. Then 5 μL/well of Assay Buffer containing 3× concentrated test compounds or the reference control agonist (in 0.5% final DMSO concentration) were added to the cells with the CyBi®-Well instrument. Cell plates were incubated for 30 min into a humidified cell culture incubator at 37° C. with 5% CO2,then the medium was removed by manually discard. 20 μL/well of lysis buffer were dispensed using the CyBi®-Well instrument and plates were incubated for 10 min at room temperature on a plate shaker (350 rpm). Then, 10 μL/well of lysate were transferred to the Alpha plates. The CyBi®-Well instrument was used to dispense 5 μL/well of AlphaLISA Acceptor Bead Solution in IX Immunoassay buffer (Perkin Elmer ALOOOF). […]

T1 sequence (Q9NZC2 19-230): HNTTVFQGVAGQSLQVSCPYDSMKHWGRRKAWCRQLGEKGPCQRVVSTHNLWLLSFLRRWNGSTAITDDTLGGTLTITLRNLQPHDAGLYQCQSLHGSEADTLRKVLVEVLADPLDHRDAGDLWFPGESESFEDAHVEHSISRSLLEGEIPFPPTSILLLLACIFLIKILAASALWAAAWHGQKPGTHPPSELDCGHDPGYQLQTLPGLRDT
T1 sequence (O43914 22-113 partner): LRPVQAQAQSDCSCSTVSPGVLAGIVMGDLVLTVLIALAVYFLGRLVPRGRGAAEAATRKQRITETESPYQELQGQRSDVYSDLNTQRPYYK

Compound | Emax | EC50
COc1ccc(-c2nc(N3C[C@@H](C)O[C@@H](c4cnn(C5CC5)c4)C3)nc3c(=O)n(C)c(C(F)(F)F)nc23)c(F)c1 (single isomer, unassigned) [Example 4] | 75 to 110% | < 1 nM
C[C@@H]1CN(c2nc(-c3ccc(C#N)cc3F)c3nc(C(F)(F)F)n(C)c(=O)c3n2)C[C@H](c2cnn(C3CC3)c2)O1 (single isomer, unassigned) [Example 5A] | > 110% | < 1 nM
C[C@@H]1CN(c2nc(-c3ccc(C#N)cc3F)c3nc(C(F)(F)F)n(C)c(=O)c3n2)C[C@H](c2cnn(C)c2)O1 (single isomer, unassigned) [Example 6A] | 75 to 110% | 1 to 10 nM
C[C@H]1CN(c2nc(-c3ccc(C#N)cc3F)c3nc(C(F)(F)F)n(C)c(=O)c3n2)C[C@@H](c2cnn(C)c2)O1 (single isomer, unassigned) [Example 6B] | 75 to 110% | 1 to 10 nM
COc1cc([C@H]2CN(c3nc(-c4ccc(C#N)cc4F)c4nc(C(F)(F)F)n(C)c(=O)c4n3)CCO2)ccn1 (single isomer, unassigned) [Example 8B] | 75 to 110% | < 1 nM
COc1cc([C@@H]2CN(c3nc(-c4ccc(C#N)cc4F)c4nc(C(F)(F)F)n(C)c(=O)c4n3)C[C@H](C)O2)ccn1 (single isomer, unassigned) [Example 9A] | 75 to 110% | < 1 nM
C[C@H]1CN(c2nc(-c3ccc(C#N)cc3)c3nc(C(F)(F)F)n(C)c(=O)c3n2)C[C@@H](c2cnn(C)c2)O1 (single isomer, unassigned) [Example 10B] | 75 to 110% | 1 to 10 nM
C[C@@H]1CN(c2cc3c(=O)n(C)c(C(F)(F)F)nc3c(-c3ccc(C#N)cc3F)n2)C[C@H](c2cnn(C3CC3)c2)O1 (single isomer, unassigned) [Example 13A] | 75 to 110% | < 1 nM
Cn1cc([C@H]2CN(c3nc(-c4ccc(C#N)cc4F)c4nc(C(F)(F)F)n(C)c(=O)c4n3)CCO2)cn1 [Example 1, (S)-3-fluoro-4-(7-methyl-2-(2-(1-methyl-1H-pyrazol-4-yl)morpholino)-8-oxo-6-(trifluoromethyl)-7,8-dihydropyrimido[5,4-d]pyrimidin-4-yl)benzonitrile] | 75 to 110% | < 1 nM
COc1ccc(-c2nc(N3CCO[C@@H](c4cnn(C)c4)C3)nc3c(=O)n(C)c(C(F)(F)F)nc23)c(F)c1 [Example 2, (S)-8-(2-fluoro-4-methoxyphenyl)-3-methyl-6-(2-(1-methyl-1H-pyrazol-4-yl)morpholino)-2-(trifluoromethyl)pyrimido[5,4-d]pyrimidin-4(3H)-one] | 75 to 110% | 1 to 10 nM
Cn1cc([C@H]2CN(c3nc(-c4ccc(C#N)cc4)c4nc(C(F)(F)F)n(C)c(=O)c4n3)CCO2)cn1 [Example 3, (S)-4-(7-methyl-2-(2-(1-methyl-1H-pyrazol-4-yl)morpholino)-8-oxo-6-(trifluoromethyl)-7,8-dihydropyrimido[5,4-d]pyrimidin-4-yl)benzonitrile] | < 75% | 1 to 10 nM

Now from value to compound:

Emax | EC50 | Compound
75 to 110% | 10 to 100 nM | C[C@@H]1CN(c2nc(-c3ccc(F)cc3F)c3ncn(C)c(=O)c3n2)C[C@H](c2cnn(C3CC3)c2)O1
75 to 110% | 1 to 10 nM | Cc1nc2c(-c3ccc(F)cc3F)nc(N3C[C@@H](C)O[C@@H](c4cnn(C5CC5)c4)C3)nc2c(=O)n1C
> 110% | 1 to 10 nM | C[C@H]1CN(c2nc(-c3ccc(C#N)cc3F)c3nc(C(F)(F)F)n(C)c(=O)c3n2)C[C@@H](c2cnn(C3CC3)c2)O1 (single isomer, unassigned) [Example 5B]
> 110% | < 1 nM | Cn1cc([C@H]2CN(c3nc(-c4ccc(C#N)cc4F)c4nc(C(F)(F)F)n(C)c(=O)c4n3)CC(F)(F)O2)cn1 (single isomer, unassigned) [Example 7A]
75 to 110% | 1 to 10 nM | Cn1cc([C@@H]2CN(c3nc(-c4ccc(C#N)cc4F)c4nc(C(F)(F)F)n(C)c(=O)c4n3)CC(F)(F)O2)cn1 (single isomer, unassigned) [Example 7B]
75 to 110% | 10 to 100 nM | COc1cc([C@@H]2CN(c3nc(-c4ccc(C#N)cc4F)c4nc(C(F)(F)F)n(C)c(=O)c4n3)CCO2)ccn1 (single isomer, unassigned) [Example 8A]
75 to 110% | < 1 nM | COc1cc([C@H]2CN(c3nc(-c4ccc(C#N)cc4F)c4nc(C(F)(F)F)n(C)c(=O)c4n3)C[C@@H](C)O2)ccn1 (single isomer, unassigned) [Example 9B]
75 to 110% | < 1 nM | C[C@@H]1CN(c2nc(-c3ccc(C#N)cc3)c3nc(C(F)(F)F)n(C)c(=O)c3n2)C[C@H](c2cnn(C)c2)O1 (single isomer, unassigned) [Example 10A]
75 to 110% | < 1 nM | C[C@@H]1CN(c2nc(-c3ccc(C#N)cc3)c3nc(C(F)(F)F)n(C)c(=O)c3n2)C[C@H](c2cnn(C3CC3)c2)O1 (single isomer, unassigned) [Example 11A]
75 to 110% | 1 to 10 nM | C[C@H]1CN(c2nc(-c3ccc(C#N)cc3)c3nc(C(F)(F)F)n(C)c(=O)c3n2)C[C@@H](c2cnn(C3CC3)c2)O1 (single isomer, unassigned) [Example 11B]
75 to 110% | < 1 nM | COc1cc([C@H]2CN(c3nc(-c4ccc(F)cc4F)c4nc(C(F)(F)F)n(C)c(=O)c4n3)CCO2)ccn1 (single isomer, unassigned) [Example 12A]
75 to 110% | 10 to 100 nM | COc1cc([C@@H]2CN(c3nc(-c4ccc(F)cc4F)c4nc(C(F)(F)F)n(C)c(=O)c4n3)CCO2)ccn1 (single isomer, unassigned) [Example 12B]
75 to 110% | 1 to 10 nM | C[C@H]1CN(c2cc3c(=O)n(C)c(C(F)(F)F)nc3c(-c3ccc(C#N)cc3F)n2)C[C@@H](c2cnn(C3CC3)c2)O1 (single isomer, unassigned) [Example 13B]
75 to 110% | 1 to 10 nM | Cn1cc([C@H]2CN(c3cc4c(=O)n(C)c(C(F)(F)F)nc4c(-c4ccc(C#N)cc4F)n3)CC(F)(F)O2)cn1 (single isomer, unassigned) [Example 14A]
75 to 110% | 10 to 100 nM | Cn1cc([C@@H]2CN(c3cc4c(=O)n(C)c(C(F)(F)F)nc4c(-c4ccc(C#N)cc4F)n3)CC(F)(F)O2)cn1 (single isomer, unassigned) [Example 14B]
75 to 110% | 1 to 10 nM | Cn1cc([C@H]2CN(c3cc4c(=O)n(C)c(C(F)(F)F)nc4c(-c4ccc(C#N)cc4F)n3)CCO2)cn1 [Example 15, (S)-3-fluoro-4-(3-methyl-6-(2-(1-methyl-1H-pyrazol-4-yl)morpholino)-4-oxo-2-(trifluoromethyl)-3,4-dihydropyrido[3,4-d]pyrimidin-8-yl)benzonitrile]
